Measured values reported in patent US20070172509A1, “Drug Delivery System for Retarding Release of Water Soluble Drugs” (Conor Medsystems, Inc., priority 2006, published 2007).
≈ marks a conversion by molar mass, not a printed value.

What was measured:
[1] = Film morphology of agent in PLGA 85/15 film cast from anisole; format: physicochemical; parameters: key: A—Amorphous; D—Dispersion; C—Crystalline
[2] = cited from earlier work
[3] = 5% agent in PLGA 85/15 film cast from anisole
[4] = 10% agent in PLGA 85/15 film cast from anisole
[5] = 25% agent in PLGA 85/15 film cast from anisole
[6] = 50% agent in PLGA 85/15 film cast from anisole
[7] = 75% agent in PLGA 85/15 film cast from anisole
[8] = 90% agent in PLGA 85/15 film cast from anisole

| SMILES | Film Morphology [1, 3] | Film Morphology [1, 4] | Film Morphology [1, 5] | Film Morphology [1, 6] | Film Morphology [1, 7] | Film Morphology [1, 8] | water solubility [2] [µg/mL] |
| --- | --- | --- | --- | --- | --- | --- | --- |
| Cc1cc(C(C)(C)C)c(O)c(C(C)(C)C)c1 [BHT, butylated hydroxy toluene] | A | A | A | D | Mixed | C |  |
| O=C(OCc1ccccc1)c1ccccc1 [Benzyl Benzoate] | A | A |  |  |  |  |  |
| CCCCOC(=O)c1ccc(O)cc1 [Butyl 4-Hydroxybenzoate] | A | A | A | C | C | C |  |
| CC[C@@H]1/C=C(\C)C[C@H](C)C[C@H](OC)[C@H]2O[C@@](O)(C(=O)C(=O)N3CCCC[C@H]3C(=O)O[C@H](/C(C)=C/[C@@H]3CC[C@H](Cl)[C@H](OC)C3)[C@H](C)[C@@H](O)CC1=O)[C@H](C)C[C@@H]2OC [Pimecrolimus, reference compound] |  | A | Mixed | C |  |  |  |
| CCCOC(=O)c1ccc(O)cc1 [Propyl 4-hydroxybenzoate] | A | A | Mixed | C | C | C |  |
| Nc1nc(Cl)nc2c1ncn2[C@H]1C[C@H](O)[C@@H](CO)O1 [cladribine] |  |  |  |  |  |  | 200 (≈ 700 µM) |
